The target in the experiment is GPR17 (Homo sapiens, UniProt Q13304). The experiment in a line: Calcium mobilization functional assay (GPR17 Ca2+ assay). It counts as cell-based. Set-up: host or cells: Flp-In T-REx CHO. Particulars: CHO hGPR17 cells, inhibition of 50 nM MDL29,951, Calcium 5 dye, FLIPR; read-out: Ca2+ assay pIC50 (converted). The procedure:
Flp-In T-REx CHO cells stably expressing human GPR17 receptor (CHO hGPR17) from Evi Kostenis' lab (Bonn University, Germany) were cultured at 37° C. in a humidified atmosphere of 5% CO2. Cells were grown in DMEM with Nutrient Mixture F-12 supplemented with hygromycin B (500 μg/mL) and blasticidin (30 μg/mL). Expression from the Flp-In locus was induced by treatment with doxycycline (1 μg/mL) for 16-20 h prior assays.
GPR17 is a G-protein coupled receptor. GPR17 activation triggers Gq-type G-protein signaling resulting in endoplasmic reticulum calcium (Ca^2+) stores release in cytosol which can be measured using Calcium 5 dye, a fluorescent indicator dye of cytosolic Ca^2+ levels. All Examples were tested in GPR17 Ca^2+ assay to determine (screen) their GPR17 modulating activity.
CHO hGPR17 were defrosted and seeded at a density of 20,000 cells per well into black 384-well plates with clear bottom. Cells were incubated overnight at 37° C. in a humidified atmosphere of 5% CO2. Sixteen to twenty hours after seeding, CHO hGPR17 were loaded for 60 min with Calcium 5 dye, a cytosolic Ca^2+ indicator fluorescent dye, according to manufacturer's instructions. Fluorescent signal relative to cytosolic Ca^2+ concentration was recorded over time at room temperature in FLIPR Tetra reader. […] Then, 50 nM MDL29,951, a GPR17 agonist, was added to the cells. Inhibitory effects of varying concentrations test compounds were measured and resulting plC50s were determined. […] Analysis and curve fitting were performed in ActivityBase XE using XLfit 4-parameter logistic equation y=A+((B−A)/(1+((C/x)^D))) where A, B, C and D stand for minimum y, maximum y, IC50 and slope, respectively.
The activities of the Example compounds tested are depicted in the table in Section B2B below. The activity ranges A, B and C refer to plC50 values in the Ca^2+ assay as follows: “A”: plC50<7.5, “B”: plC50 7.5<x≤ 8.5, “C”: plC50>8.5
In general terms: A change in cytosolic calcium serves as a functional read-out for many receptors and channels.

This note sets out measurements from patent US12071404B2, “Aza (indole)-, benzothiophene-, and benzofuran-3-sulfonamides” (UCB Pharma GmbH, priority 2016, dated 2024).

GPR17, sequence (Q13304 whole entry): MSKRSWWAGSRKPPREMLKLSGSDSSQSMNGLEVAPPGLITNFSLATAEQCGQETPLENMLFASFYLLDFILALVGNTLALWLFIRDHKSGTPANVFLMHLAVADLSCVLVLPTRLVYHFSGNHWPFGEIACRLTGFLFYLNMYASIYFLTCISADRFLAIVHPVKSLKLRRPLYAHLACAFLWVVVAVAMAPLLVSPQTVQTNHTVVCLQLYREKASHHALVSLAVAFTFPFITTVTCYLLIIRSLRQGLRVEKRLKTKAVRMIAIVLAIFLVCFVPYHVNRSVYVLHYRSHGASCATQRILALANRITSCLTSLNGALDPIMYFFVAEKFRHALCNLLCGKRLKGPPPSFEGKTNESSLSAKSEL

Regarding `O=S(=O)(Nc1cc(F)c(F)cc1F)c1c[nH]c2cc(C(F)(F)F)ccc12` [Compound I-54, 6-(trifluoromethyl)-N-(2,4,5-trifluorophenyl)-1H-indole-3-sulfonamide], the IC50 is over 31.6 nM. Take `O=S(=O)(Nc1cccc(Cl)n1)c1c[nH]c2cc(Cl)ccc12` [Compound I-57, 6-chloro-N-(6-chloropyridin-2-yl)-1H-indole-3-sulfonamide]: the IC50 was over 31.6 nM.

With `COc1cccc(NS(=O)(=O)c2c[nH]c3cc(Cl)ccc23)n1` [Compound I-58, 6-chloro-N-(6-methoxypyridin-2-yl)-1H-indole-3-sulfonamide], the IC50 was over 31.6 nM. Regarding `N#Cc1ccc(NS(=O)(=O)c2c[nH]c3cc(Cl)ccc23)nc1` [Compound I-61, 6-chloro-N-(5-cyanopyridin-2-yl)-1H-indole-3-sulfonamide], the IC50 was over 31.6 nM. For the compound `O=S(=O)(Nc1ccc(F)cn1)c1c[nH]c2cc(Cl)ccc12` [Compound I-62, 6-chloro-N-(5-fluoropyriidn-2-yl)-1H-indole-3-sulfonamide], the IC50 is over 31.6 nM. For `COc1ccc2c(S(=O)(=O)Nc3cccc4nsnc34)c[nH]c2c1` [Compound I-64, N-(2,1,3-benzothiadiazol-4-yl)-6-methoxy-1H-indole-3-sulfonamide], the IC50 is over 31.6 nM. `N#Cc1ccc2c(S(=O)(=O)Nc3cc4c(cc3F)OC(F)(F)O4)c[nH]c2c1` [Compound I-68, 6-cyano-N-(2,2,6-trifluoro-1,3-benzodioxol-5-yl)-1H-indole-3-sulfonamide]: the IC50 is over 31.6 nM. Under `O=S(=O)(Nc1cc2c(cc1F)OC(F)(F)O2)c1c[nH]c2c1ccc1cccnc12` [Compound I-70, N-(2,2,6-trifluoro-1,3-benzodioxol-5-yl)-1H-pyrrolo[3,2-h]quinoline-3-sulfonamide] stands over 31.6 nM. Turning to `COc1ccc2c(S(=O)(=O)Nc3cc4c(cc3F)OC(F)(F)O4)c[nH]c2c1` [Compound I-71, 6-methoxy-N-(2,2,6-trifluoro-1,3-benzodioxol-5-yl)-1H-indole-3-sulfonamide], the IC50 is over 31.6 nM. Regarding `COc1ccc2c(S(=O)(=O)Nc3cccc4c3OC(F)(F)O4)c[nH]c2c1` [Compound I-72, N-(2,2-difluoro-1,3-benzodioxol-4-yl)-6-methoxy-1H-indole-3-sulfonamide], the IC50 is over 31.6 nM. Take `O=S(=O)(Nc1cccc2nsnc12)c1c[nH]c2c3c(ccc12)CCC3` [Compound I-74]: the IC50 is over 31.6 nM. In the case of `N#Cc1ccc2c(S(=O)(=O)Nc3cc(F)c(F)cc3F)c[nH]c2c1` [Compound I-75, 6-cyano-N-(2,4,5-trifluorophenyl)-1H-indole-3-sulfonamide], the IC50 is over 31.6 nM.

Take `N#Cc1ccc(NS(=O)(=O)c2c[nH]c3ncc(Cl)cc23)cc1` [Compound I-77, 5-chloro-N-(4-cyanophenyl)-1H-pyrrolo[2,3-b]pyridine-3-sulfonamide]: the IC50 is over 31.6 nM. As for `O=S(=O)(Nc1cc(F)ccc1F)c1c[nH]c2ncc(I)cc12` [Compound I-81, N-(2,5-difluorophenyl)-5-iodo-1H-pyrrolo[2,3-b]pyridine-3-sulfonamide], the IC50 is over 31.6 nM.

For `O=S(=O)(Nc1ccc(F)cc1F)c1c[nH]c2ncc(I)cc12` [Compound I-82, N-(2,4-difluorophenyl)-5-iodo-1H-pyrrolo[2,3-b]pyridine-3-sulfonamide], the IC50 was over 31.6 nM. Take `C#Cc1ccc(NS(=O)(=O)c2c[nH]c3nc(Cl)ccc23)cc1` [Compound I-84, 6-chloro-N-(4-ethynylphenyl)-1H-pyrrolo[2,3-b]pyridine-3-sulfonamide]: the IC50 was over 31.6 nM. On to `O=S(=O)(Nc1ccc(F)cc1F)c1c[nH]c2nc(Cl)ccc12` [Compound I-86, 6-chloro-N-(2,4-difluorophenyl)-1H-pyrrolo[2,3-b]pyridine-3-sulfonamide], for which the IC50 was over 31.6 nM.

With `O=S(=O)(Nc1cccc(F)c1Cl)c1c[nH]c2nc(Cl)ccc12` [Compound I-87, 6-chloro-N-(2-chloro-3-fluorophenyl)-1H-pyrrolo[2,3-b]pyridine-3-sulfonamide], the IC50 was over 31.6 nM.
